Test results taken from patent publication US20030153611A1, “1,3-Diarylprop-2-en-1-ones, compositions containing them and use thereof” (AVENTIS PHARMA S.A., priority 2001, published 2003).
Structures can show the parent of a compound that is named as a salt.

What was measured:
Tubulin = target: T1, Tubulin (Sus scrofa, UniProt P02550+P02554); assay: Assessment of the inhibition of tubulin polymerization (turbidimetry); assay type: biochemical, pig; details: tubulin 10 μM, turbidity at 350 nm, 37° C.
T1 construct: Tubulin is purified from pig brains according to the published methods; from tissue; host or cells: pig brain
T1 sequence (P02550 whole entry): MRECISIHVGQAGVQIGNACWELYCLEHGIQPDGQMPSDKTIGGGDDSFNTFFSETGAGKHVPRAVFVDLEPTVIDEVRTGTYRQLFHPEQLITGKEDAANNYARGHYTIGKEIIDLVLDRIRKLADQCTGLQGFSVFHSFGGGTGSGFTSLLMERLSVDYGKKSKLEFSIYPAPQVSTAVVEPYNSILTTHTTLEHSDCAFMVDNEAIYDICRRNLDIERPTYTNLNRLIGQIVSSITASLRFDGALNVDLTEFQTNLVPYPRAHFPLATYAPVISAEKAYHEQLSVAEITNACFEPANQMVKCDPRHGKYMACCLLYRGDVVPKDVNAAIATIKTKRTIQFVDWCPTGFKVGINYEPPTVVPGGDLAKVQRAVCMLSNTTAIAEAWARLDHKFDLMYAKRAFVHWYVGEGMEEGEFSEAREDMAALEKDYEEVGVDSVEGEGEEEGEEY
T1 sequence (P02554 whole entry): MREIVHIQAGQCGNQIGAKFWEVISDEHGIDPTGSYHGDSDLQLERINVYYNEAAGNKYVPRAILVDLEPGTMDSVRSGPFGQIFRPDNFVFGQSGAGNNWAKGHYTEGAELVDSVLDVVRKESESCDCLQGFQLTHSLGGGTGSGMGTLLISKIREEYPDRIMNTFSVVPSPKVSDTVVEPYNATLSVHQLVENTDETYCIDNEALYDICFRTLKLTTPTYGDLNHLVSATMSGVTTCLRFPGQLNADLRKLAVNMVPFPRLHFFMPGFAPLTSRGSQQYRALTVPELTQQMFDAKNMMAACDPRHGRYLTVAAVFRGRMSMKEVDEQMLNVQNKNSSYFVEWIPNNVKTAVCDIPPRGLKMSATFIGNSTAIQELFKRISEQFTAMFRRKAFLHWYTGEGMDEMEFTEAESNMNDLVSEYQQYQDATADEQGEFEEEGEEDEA
Description: Tubulin is purified from pig brains according to the published methods (Shelanski et al., 1973, Proc. Natl, Acad. Sci. USA, 70, 765-768. Weingarten et al., 1975, Proc. Natl, Acad. Sci. USA, 72, 1858-1862). Briefly, the brains are ground and centrifuged in an extraction buffer. The tubulin, contained in the extract supernatant, is subjected to two successive cycles of polymerization at 37° C. and depolymerization at 4° C., before being separated from the MAPs (Microtubule Associated Proteins) by chromatography on a phosphocellulose P11 column (Whatman). The tubulin thus isolated is more than 95% pure. It is stored in a buffer known as RB/2 30% glycerol, the composition of which is MES-NaOH [2-(N-morpholino)ethanesulfonic acid] 50 mM, pH 6.8; MgCl2 0.25 mM; EGTA 0.5 mM; 30% glycerol (v/v), GTP (guanosine 5′-triphosphate) 0.2 mM.
The polymerization of the tubulin into microtubules is monitored by turbidimetry as follows; the tubulin is adjusted to a concentration of 10 μM (1 mg/ml) in the RB/2 30% glycerol buffer, to which is added 1 mM GTP and 6 mM MgCl2. The polymerization is initiated by increasing the temperature from 6° C. to 37° C. in a cuvette with a 1 cm optical pathlength, placed in a Uvikon 931 spectrophotometer (Kontron) equipped with a thermostatically-regulated cuvette holder. The increase in the turbidity of the solution is monitored at 350 nm.
The products are dissolved at 10 mM in DMSO and added at variable concentrations (0.5 to 10 μM) to the tubulin solution before polymerization. The IC50 value is defined as the concentration of product which inhibits 50% of the rate of polymerization. A product whose IC50 value is less than or equal to 3 μM is considered as very active.

HDMEC = assay: Inhibition of cell proliferation, HDMEC; assay type: cell-based; details: Homo sapiens
HeLa cells = assay: Inhibition of proliferation of HeLa cells ([14C]-thymidine incorporation); assay type: cell-based; details: Homo sapiens, incubation for 48 hours, read-out: Inhibition of cell proliferation IC50 HeLa
Description: The proliferation of HeLa cells is assessed by measuring the incorporation of [^14C]-thymidine in the following way. The HeLa cells (epithelial tumor cells of human origin) are cultured in a DMEM medium (Gibco) which contains 10% fetal calf serum and antibiotics (1% penicillin, 1% streptomycin). To carry out the proliferation test, the cells are inoculated into 96-well cytostar microplates (Amersham), at a rate of 5 000 cells per well. [^14C]-thymidine (0.1 μCi/well) and the products to be assessed are then added. Variable concentrations of products up to 10 μM are used; the DMSO (solvent used to dissolve the products) should not exceed 0.5% in the medium. After incubation for 48 hours at 37° C., the radioactivity incorporated into the cells is measured by counting the plate in a TRI-LUX counter (Wallac). The IC50 value is defined as the concentration of product which reduces the radioactivity by 50% relative to an untreated control. A product whose IC50 value is less than 1 μM is considered as cytotoxic.

HDMEC cells = assay: Detachment effect on HDMEC endothelial cells; assay type: cell-based, Human; details: treatment for two hours
From the text: A test to determine the detachment of endothelial cells was established in order to select the products on the basis of their “in vitro” activity. This test for determining the endothelial cell detachment is characterized in that the endothelial cells, inoculated in plates which are coated at the bottom with a binder, e.g., chosen from gelatin, fibronectin or vitronectin, after culturing, are supplemented with a medium containing the test compound, and the cells are then labeled with a fluorescent substance, the cells which become detached are removed by washing and the fluorescence of the remaining cells is counted in a fluorimeter.
This test consists in measuring the detachment of endothelial cells cultured on substrates based on a binder, e.g., chosen from fibronectin, vitronectin and gelatin. One day after inoculating the cells in plates containing 96 wells, for example, the culture medium is replaced with a medium containing the test compound in the absence of serum. The same preparation is prepared six times at three different concentrations ([…]) and the control without addition of antivascular product is prepared six times. After treatment for two hours with the test substance, the cells are labeled with calcein-AM (1.6 μg/ml) in a culture medium supplemented with 0.1% BSA. The cells which become detached are removed by washing with the culture medium containing 0.1% bovine serum albumin; 100 μl of medium are added to each well. The fluorescence of the remaining cells is counted in a fluorimeter. The data obtained are expressed relative to the control (untreated cells).
(§1) The assessment of the detachment of the endothelial cells in vitro is determined in the following way. HDMEC cells (Human Dermal Microvascular Endothelial Cells, Promocell, c-122102) are cultured in an ECGM-MV medium containing 5% fetal calf serum, growth factors (EGF 10 ng/ml, hydrocortisone 1 μg/ml, 0.4% growth supplement with heparin) and antibiotics (amphotericin 50 ng/ml, gentamicin 50 μg/ml). For the detachment test, the HDMECs are inoculated at a rate of 5 000 cells in clear-bottomed 96-well plates (Costar) precoated with fibronectin (10 μg/ml) or vitronectin (1 μg/ml) or gelatin. Twenty-four hours later, the culture medium is replaced with 0.1% BSA ECGM-MV medium containing the indicated products. The test concentrations are 0.1-0.3 and 1 μM for each product. After treatment for two hours, the cells are labeled for 1 hour with calcein (1.6 μg/ml, Molecular Probes) in 0.1% BSA ECGM-MV medium. The detached cells are then removed by washing with 0.1% BSA ECGM-MV medium; 100 μl of medium are added to each well. The fluorescence of the cells which remain attached to the substratum of the well is counted using a fluorimeter, Spectrafluor Plus (Tecan, excitation at 485 nm, and emission at 535 nm). The data are the average of six different samples and are expressed as a percentage of the control (untreated cells).
A cell detachment effect of greater than or equal to 15% is considered as significant.
as §1, with “(amphotericine” for “(amphotericin”, “The detached cells are then removed by washing with 0.1% BSA ECGM-MV medium; 100 μl of medium are added to each well. The fluorescence of the cells which remain attached to the substratum of the well is counted using a fluorimeter, Spectrafluor Plus (Tecan, excitation at 485 nm, and emission at 535 nm). The data are the average of six different samples and are expressed as a percentage of the control (untreated cells).” left out

IC50 (Tubulin) [nM] | SMILES | IC50 (HDMEC) [nM] | IC50 (HeLa cells) [nM] | Percentage of detachment of HDMEC cells induced with the compound at a concentration of 0.1 μM (HDMEC cells) | Percentage of detachment of HDMEC cells induced with the compound at a concentration of 0.3 μM (HDMEC cells) | Percentage of detachment of HDMEC cells induced with the compound at a concentration of 1 μM (HDMEC cells)
2000 | COc1cc(C(=NO)/C(C)=C/c2ccc3c(ccn3C)c2)cc(OC)c1OC (mixture of isomers) [Example 7, E-2-Methyl-3-(1-methyl-1-H-indol-5-yl)-1-(3,4,5-trimethoxyphenyl)propenoneoxime] | 300 to 500 |  |  |  | 
2500 | COc1cc(/C=C(\C)C(=O)c2cc(OC)c(OC)c(OC)c2)ccc1N [Example 2, E-3-(4-Amino-3-methoxyphenyl)-2-methyl-1-(3,4,5-trimethoxyphenyl)propenone] | 1.9 to 4 | 39 to 104 | 16-21% | 17-32% | 31-49%
800 | COc1cc(C(=N\O)/C(C)=C/c2ccc3c(ccn3C)c2)cc(OC)c1OC [Example 8, E-2-Methyl-3-(1-methyl-1-H-indol-5-yl)-1-(3,4,5-trimethoxyphenyl)propenone Z-oxime] |  |  |  |  | 
3500 | COc1cc(C(=N/O)/C(C)=C/c2ccc3c(ccn3C)c2)cc(OC)c1OC [Example 9, E-2-Methyl-3-(1-methyl-1-H-indol-5-yl)-1-(3,4,5-trimethoxyphenyl)propenone E-oxime] |  |  |  |  | 
800 | COc1cc(C(=O)/C(C)=C/c2ccc3[nH]ccc3c2)cc(OC)c1OC [Example 19, E-2-Methyl-3-(1-H-indol-5-yl)-1-(3,4,5-trimethoxyphenyl)propenone] |  |  |  |  | 
2000 | COc1cc(C(=O)/C(C)=C/c2ccc3c(ccn3CCN(C)C)c2)cc(OC)c1OC [Example 20, E-2-Methyl-3-[1-(2-dimethylaminoethyl)-1-H-indol-5-yl]-1-(3,4,5-trimethoxyphenyl)propenone hydrochloride] |  |  |  |  | 
500 | COc1cc(C(=O)/C(C)=C/c2ccc3c(ccn3CO)c2)cc(OC)c1OC [Example 21, E-2-Methyl-3-(1-hydroxymethyl-1-H-indol-5-yl)-1-(3,4,5-trimethoxyphenyl)propenone] |  |  |  |  | 

More lines, now with the values behind:

SMILES | IC50 (Tubulin) [nM] | IC50 (HDMEC) [nM] | IC50 (HeLa cells) [nM] | Percentage of detachment of HDMEC cells induced with the compound at a concentration of 0.1 μM (HDMEC cells) | Percentage of detachment of HDMEC cells induced with the compound at a concentration of 0.3 μM (HDMEC cells) | Percentage of detachment of HDMEC cells induced with the compound at a concentration of 1 μM (HDMEC cells)
COc1ccc(/C=C(\C)C(=O)c2cc(OC)c(OC)c(OC)c2)cc1N [Example 1, E-3-(3-Amino-4-methoxyphenyl)-2-methyl-1-(3,4,5-trimethoxyphenyl)propenone] | 300 | 2.5 to 3.2 | 3.6 to 4.3 | 21-36% | 18-38% | 37-42%
COc1ccc(OC)c(C(=O)/C(C)=C/c2ccc(OC)c(N)c2)c1.Cl [Example 3, E-3-(3-Amino-4-methoxyphenyl)-2-methyl-1-(2,5-dimethoxyphenyl)propenone hydrochloride] | 500 | < 19 | < 19 | 31% | 37% | 34%
COc1ccc(/C=C(\Br)C(=O)c2cc(OC)c(OC)c(OC)c2)cc1N [Example 4, E-3-(3-Amino-4-methoxyphenyl)-2-bromo-1-(3,4,5-trimethoxyphenyl)propenone] | 600 |  |  |  |  | 
COc1ccc(/C=C(\C)C(=O)c2cc(OC)c(OC)c(OC)c2)cc1NC(=O)[C@@H](N)CCCNC(=N)N[N+](=O)[O-] [Example 11, 2-Amino-5-[3-(1-nitroguanidino)]-pentanoic acid {2-methoxy-5-[2-methyl-3-oxo-3-(3,4,5-trimethoxy-phenyl)propenyl]phenyl}amide hydrochloride] |  | 400 |  |  |  | 
COc1ccc(/C=C(\C)C(=O)c2cc(OC)c(OC)c(OC)c2)cc1NC(=O)[C@@H]1CCCN1C [Example 12, 1-Methylpyrrolidine-2-carboxylic acid {2-methoxy-5-[2-methyl-3-oxo-3-(3,4,5-trimethoxyphenyl)propenyl]phenyl}amide hydrochloride] |  | 320 |  |  |  | 
COc1ccc(/C=C(\C)C(=O)c2cc(OC)c(OC)c(OC)c2)cc1NC(=O)[C@@H](N)C(C)C [Example 15, (S)-2-Amino-3-methylbutanoic acid {2-methoxy-5-[2-methyl-3-oxo-3-(3,4,5-trimethoxy-phenyl)propenyl]phenyl}amide hydrochloride] | 9000 | 30 to 60 |  |  |  | 
COc1cc(C(=O)/C(C)=C/c2ccc3c(ccn3C)c2)cc2c1OCO2 [Example 16, E-2-Methyl-3-(1-methyl-1-H-indol-5-yl)-1-(3-methoxy-4,5-methylenedioxyphenyl)propenone] | 500 |  |  |  |  | 
